Results published in paper PMC11481179, “Development and Application of Reversible and Irreversible Covalent Probes for Human and Mouse Cathepsin‐K Activity Detection, Revealing Nuclear Activity” (Advanced Science, 2024).

Legend:
[1] = test system: U-2 OS cells; test: Cell viability assay (methylene blue); format: cell-based, human; conditions: 48 h incubation
Experimental: (§1) U-2 OS, U-87 MG, and enriched monocyte cells were grown at 370 C with 5% of CO2 in the
(§2) respective medium as described previously. Cells were seeded (1500 cells/well in 96 wells
(§3) plate) one day before the incubation with indicated probe or inhibitor at various concentrations.
(§4) After 48 h cells were fixed, and viability was measured by quantitative colorimetric assay using
(§5) methylene blue according to the procedure reported by Ben-Bassat et al. The data were
(§6) expressed as a percentage of control; data represent the mean of 2 experiments with triplicates
(§7) for each treatment (± standard deviation).
(§8) Fluorescent imaging of CTSK activity in lung tissue: Freshly resected human lung cancer and
(§9) normal lung tissues or mouse normal lung and primary lung cancer were embedded in OCT,
(§10) frozen in liquid nitrogen, and kept at - 80° C. Tissues were sectioned into 10 μm thick slices
(§11) using a cryostat (Leica). The slides were defrosted and washed with 1X PBS. Then the slides
(§12) were pretreated with DMSO or GD30 (5 µM) in buffer acetate for 1 h at 37° C. Afterward,
(§13) GD32 (0.75uM) or DMSO in buffer acetate were applied to the slides for 4 h at 37° C. Three
(§14) short washes with 1X PBS were done and the slides were left in 1X PBS for overnight
(§15) incubation at 4° C. The next day, slides were mounted with DAPI-Fluoromount-G® before
(§16) visualization by confocal microscopy. Olympus FV10i was used for human samples, whereas
(§17) Zeiss was used for mouse samples.
(§18) Details of the synthesis of the compounds
(§19) Synthesis of Compound (2)

[2] = test system: U-87 MG cells; test: Cell viability assay (methylene blue); format: cell-based, human; conditions: 48 h incubation
Experimental: as §1, §2, §3, §4, §5, §6, §7, §8, §9, §10, §11, §12, §13, §14, §15, §16, §17, §18, §19

[3] = molecular target: CTSS (Homo sapiens, UniProt P25774); test: In vitro kinetic evaluation of cathepsin inhibition, fluorescent substrate Z-FR-AMC; format: biochemical; conditions: for mode of inhibition: CTSS; for times less potent toward CTSS compared to CTSK: selectivity CTSK over CTSS
Experimental: used for TLC. Phosphate Buffer Saline (PBS) was purchased from Biological Industries (pH = […]
7.4) and was used as a buffer system in all experiments if not indicated otherwise. […]
Recombinant human CTSB, CTSK, CTSL, and CTSS were supplied by B. Turk (J.
Stefan Institute).[1] […]
In vitro kinetic evaluation of labeling recombinant cathepsins:
Reactions were monitored for 30 min at 37° C in 96-well black flat-bottom microplates […]
(Greiner, Germany) using Tecan INFINITE M1000 pro plate reader (Tecan, Switzerland), […]
substrates Z-RR-AMC (CTSL) or Z-FR-AMC (CTSS, CTSB and CTSK), and excitation and […]
emission wavelengths of 370 and 460 nm, respectively. Cathepsin concentrations in the assay were 0.4 nM (CTSK) or 5 nM (CTSS, CTSB, and CTSL). The buffer was 100 mM Na2HPO4/NaH2PO4, 50 mM NaCl, 5 mM DTT, 0,1% Peg-6000, pH 6. For irreversible inhibitors, reaction data were fitted to the one-phase association formula in GraphPad Prism 9 software: Y=Y0 + (Plateau-Y0)*(1-exp(-K*X)) where in this case Y0 and Y represent fluorescence signal at times 0 and t, respectively, K represent the observed reaction rate kobs and X the inhibitor concentration. Inactivation rates at each inhibitor concentration were obtained by subtracting the inactivation observed in the control sample: kobs – kctrl. The maximal rate of inactivation (kinact) was obtained as the asymptote from equation Y = kinact*X/(Kiapp + X) where X is inhibitor concentration, Y is the observed inactivation rate for each X, and Kiapp is the apparent inhibition constant. Ki values were calculated from IC50 or from Kiapp using formulas Ki = Kiapp / (1 + Km/S) and IC50 = E0/2 + Kiapp, where Km stands for Michalis-Menten constant, S for substrate concentration and E0 for cathepsin concentration.
The highest inhibitor concentrations in the assay were 50 µM. Measurements were performed in several independent duplicates. Average values are presented with standard deviations. […]

CTSS, sequence (P25774 115-331): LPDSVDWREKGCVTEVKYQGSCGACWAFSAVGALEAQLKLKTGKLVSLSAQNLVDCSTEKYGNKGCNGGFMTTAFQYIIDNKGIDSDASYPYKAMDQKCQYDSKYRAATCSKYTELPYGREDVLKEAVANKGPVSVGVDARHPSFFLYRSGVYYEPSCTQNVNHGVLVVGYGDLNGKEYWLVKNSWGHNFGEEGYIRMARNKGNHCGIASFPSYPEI

C#CCNC(=O)[C@H](CC(C)C)N[C@@H](c1ccc(-c2ccc(S(=O)(=O)CCNC(=O)OC(C)(C)C)cc2)cc1)C(F)(F)F [GD30]
cytotoxicity [1]: No toxicity | cytotoxicity [2]: No toxicity

C#CCNC(=O)[C@H](CC(C)C)N[C@@H](c1ccc(-c2ccc(S(=O)(=O)CCNC(=O)CCCCC[N+]3=C(/C=C/C=C/C=C4/N(C)c5ccc(S(=O)(=O)O)cc5C4(C)C)C(C)(C)c4cc(S(=O)(=O)O)ccc43)cc2)cc1)C(F)(F)F [GD32]
mode of inhibition [3]: Irreversible | Ki ([3]; CTSS 5 nM, pH 6, 37 °C): 980 nM | kinact ([3]; CTSS 5 nM, pH 6, 37 °C): 0.0022 ± 0.00009 s⁻¹ | kinact/Ki ([3]; CTSS 5 nM, pH 6, 37 °C): 2220 ± 300 M⁻¹ s⁻¹ | times less potent toward CTSS compared to CTSK [3]: 115 times | cytotoxicity [1]: No toxicity | cytotoxicity [2]: No toxicity

CC(C)C[C@H](N[C@@H](c1ccc(-c2ccc(S(=O)(=O)CCNC(=O)CCCCC[N+]3=C(/C=C/C=C/C=C4/N(C)c5ccc(S(=O)(=O)O)cc5C4(C)C)C(C)(C)c4cc(S(=O)(=O)O)ccc43)cc2)cc1)C(F)(F)F)C(=O)NC1(C#N)CC1 [GD37]
mode of inhibition [3]: Reversible | Ki ([3]; CTSS 5 nM, pH 6, 37 °C): 60 nM | times less potent toward CTSS compared to CTSK [3]: 150 times
